Laboratory results published in the NIST ThermoML archive (doi:10.1021/je700042z).
Several values for one entry are separate records, joined by “and”; a condition that tells them apart may be missing. Identical values can stand only once.

Test: cn = amount concentration of the nth substance listed, in mol/dm3
Conditions: 298.15 K, 101 kPa, Liquid

O=[As](O)(O)O [arsenic acid] + O
Conditions	binary diffusion coefficient
c1 = 0.000125	1.5e-09 m2/s and 1.49e-09 m2/s
c1 = 0.000407	1.41e-09 m2/s
c1 = 0.000837	1.35e-09 m2/s
c1 = 0.00101	1.33e-09 m2/s and 1.32e-09 m2/s
c1 = 0.00206	1.24e-09 m2/s
c1 = 0.00251	1.21e-09 m2/s
c1 = 0.00351	1.17e-09 m2/s
c1 = 0.00471	1.13e-09 m2/s and 1.14e-09 m2/s
c1 = 0.00506	1.12e-09 m2/s
c1 = 0.00701	1.08e-09 m2/s and 1.09e-09 m2/s
c1 = 0.00825	1.08e-09 m2/s and 1.07e-09 m2/s
c1 = 0.0119	1.03e-09 m2/s and 1.04e-09 m2/s
c1 = 0.014	1.02e-09 m2/s

O=C(O)CC(=O)O [propanedioic acid] + O
Conditions	binary diffusion coefficient
c1 = 0.000124	1.67e-09 m2/s and 1.68e-09 m2/s
c1 = 0.000252	1.59e-09 m2/s and 1.61e-09 m2/s and 1.6e-09 m2/s
c1 = 0.000253	1.61e-09 m2/s and 1.6e-09 m2/s and 1.59e-09 m2/s
c1 = 0.000378	1.53e-09 m2/s and 1.52e-09 m2/s
c1 = 0.000379	1.52e-09 m2/s
c1 = 0.000502	1.49e-09 m2/s
c1 = 0.000627	1.46e-09 m2/s and 1.45e-09 m2/s
c1 = 0.000751	1.42e-09 m2/s
c1 = 0.000803	1.4e-09 m2/s
c1 = 0.00138	1.32e-09 m2/s and 1.33e-09 m2/s
c1 = 0.0019	1.27e-09 m2/s
c1 = 0.0025	1.23e-09 m2/s and 1.22e-09 m2/s
c1 = 0.0035	1.19e-09 m2/s and 1.18e-09 m2/s
c1 = 0.00454	1.16e-09 m2/s
c1 = 0.0046	1.14e-09 m2/s and 1.15e-09 m2/s and 1.16e-09 m2/s
c1 = 0.00701	1.11e-09 m2/s
c1 = 0.0101	1.08e-09 m2/s
c1 = 0.0118	1.07e-09 m2/s and 1.08e-09 m2/s
c1 = 0.015	1.06e-09 m2/s and 1.07e-09 m2/s and 1.05e-09 m2/s
c1 = 0.0201	1.03e-09 m2/s
